For one compound, inhibition results are on record in publication PMC6934184, “Selective DNA-PKcs inhibition extends the therapeutic index of localized radiotherapy and chemotherapy” (The Journal of Clinical Investigation, 2019).

As a reminder, the inhibition is the change of the read-out against control, counted positive when it falls.

This test addresses T1, EPHA8 (Homo sapiens, UniProt P29322).
T1 construct: purchased Thermo Fisher Scientific (Life Technologies) SelectScreen
Kind of test: SelectScreen Z'LYTE. The class given is biochemical. The gist of the method: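 SelectScreen broad panel; activity (Z'LYTE, Adapta) plus binding formats. ATP: Km app for CSF1R Z'LYTE; 10 for CAMK1 Adapta. Readout = % per kinase.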

T1 sequence (P29322 28-1005): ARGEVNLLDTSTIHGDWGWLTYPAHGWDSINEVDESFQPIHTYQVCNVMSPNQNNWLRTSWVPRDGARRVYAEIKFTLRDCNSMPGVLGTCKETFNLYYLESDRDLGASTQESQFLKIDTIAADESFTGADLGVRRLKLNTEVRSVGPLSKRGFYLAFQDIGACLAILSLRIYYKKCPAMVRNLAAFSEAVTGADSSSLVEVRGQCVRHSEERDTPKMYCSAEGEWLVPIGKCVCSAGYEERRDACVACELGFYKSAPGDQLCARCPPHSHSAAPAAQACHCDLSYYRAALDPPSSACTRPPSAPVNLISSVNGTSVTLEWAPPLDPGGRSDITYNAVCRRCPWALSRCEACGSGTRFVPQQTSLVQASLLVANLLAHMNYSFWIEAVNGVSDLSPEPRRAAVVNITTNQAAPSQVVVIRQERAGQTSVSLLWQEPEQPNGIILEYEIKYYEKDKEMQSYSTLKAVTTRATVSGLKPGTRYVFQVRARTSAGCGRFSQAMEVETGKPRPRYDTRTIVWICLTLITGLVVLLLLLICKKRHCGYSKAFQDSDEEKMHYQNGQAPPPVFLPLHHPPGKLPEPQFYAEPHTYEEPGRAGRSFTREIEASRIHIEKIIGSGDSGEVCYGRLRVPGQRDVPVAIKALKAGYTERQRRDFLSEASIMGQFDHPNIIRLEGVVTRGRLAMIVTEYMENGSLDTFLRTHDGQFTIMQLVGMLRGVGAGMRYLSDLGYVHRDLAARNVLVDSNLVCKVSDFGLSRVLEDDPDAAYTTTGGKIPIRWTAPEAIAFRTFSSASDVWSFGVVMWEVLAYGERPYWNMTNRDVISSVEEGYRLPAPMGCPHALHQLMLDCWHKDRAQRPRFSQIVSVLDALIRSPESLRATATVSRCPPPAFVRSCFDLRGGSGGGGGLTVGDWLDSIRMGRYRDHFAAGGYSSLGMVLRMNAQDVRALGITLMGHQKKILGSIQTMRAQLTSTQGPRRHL

For the compound `CN(C(=O)CN1CCOCC1)c1ccc2sc3c(-c4cccc5c(=O)cc(N6CC7CCC(C6)O7)oc45)cccc3c2c1` [NU5455], the inhibition at 1 µM was -13.8%.
